According to ChEMBL document CHEMBL5096147, “Glycogen Synthase Kinase 3β: A New Gold Rush in Anti-Alzheimer's Disease Multitarget Drug Discovery?” (J Med Chem, 2021):
Blank lines part the entries; values can stand above or below the molecule they belong to.

What was measured:
Adenosine kinase = Adenosine kinase (Homo sapiens, UniProt P55263); assay: Inhibition of human wild type AK expressed in Escherichia coli using [2,8- 3H]-Ado and ATP as substrate by radiometric analysis
[1] = target: T1, Glycogen synthase kinase-3 beta (Homo sapiens, UniProt P49841)
T1 sequence (P49841 whole entry): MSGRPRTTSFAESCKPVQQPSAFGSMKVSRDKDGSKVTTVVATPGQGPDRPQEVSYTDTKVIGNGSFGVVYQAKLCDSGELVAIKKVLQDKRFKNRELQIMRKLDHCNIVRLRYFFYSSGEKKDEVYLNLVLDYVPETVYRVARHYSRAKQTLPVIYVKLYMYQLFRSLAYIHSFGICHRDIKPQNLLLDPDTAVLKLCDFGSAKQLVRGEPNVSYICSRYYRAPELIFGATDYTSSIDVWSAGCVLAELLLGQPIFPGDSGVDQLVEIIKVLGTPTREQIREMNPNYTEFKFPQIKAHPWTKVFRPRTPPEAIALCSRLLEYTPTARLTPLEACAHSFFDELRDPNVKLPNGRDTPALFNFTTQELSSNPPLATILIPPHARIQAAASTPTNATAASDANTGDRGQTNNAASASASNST
Description: Inhibition of GSK-3beta (unknown origin)

[2] = Kinetic aqueous solubility of the compound in PBS buffer at pH 7.4 at 250 uM and measured after 24 hrs by UPLC/MS analysis; type: physicochemical; details: read-out: Kinetic_solubility
[3] = Cmax in CD-1 mouse brain at 10 mg/kg, po and measured after 30 mins by LC-MS/MS analysis; type: ADME, organism-based; design: dose 10 mg/kg, time 30 min, route po
Beta-secretase 1 = Beta-secretase 1 (Homo sapiens, UniProt P56817); assay: Inhibition of BACE-1 (unknown origin) using M-240 (methoxycoumarin-Ser-Glu-Val-Asn-Leu-Asp-Ala-Glu-Phe-Lys-dinitrophenyl) peptide as substrate preincubated for 60 mins followed by substrate addition and measured after 15 mins by fluorescence based analysis
Sequence of Beta-secretase 1 (P56817 whole entry): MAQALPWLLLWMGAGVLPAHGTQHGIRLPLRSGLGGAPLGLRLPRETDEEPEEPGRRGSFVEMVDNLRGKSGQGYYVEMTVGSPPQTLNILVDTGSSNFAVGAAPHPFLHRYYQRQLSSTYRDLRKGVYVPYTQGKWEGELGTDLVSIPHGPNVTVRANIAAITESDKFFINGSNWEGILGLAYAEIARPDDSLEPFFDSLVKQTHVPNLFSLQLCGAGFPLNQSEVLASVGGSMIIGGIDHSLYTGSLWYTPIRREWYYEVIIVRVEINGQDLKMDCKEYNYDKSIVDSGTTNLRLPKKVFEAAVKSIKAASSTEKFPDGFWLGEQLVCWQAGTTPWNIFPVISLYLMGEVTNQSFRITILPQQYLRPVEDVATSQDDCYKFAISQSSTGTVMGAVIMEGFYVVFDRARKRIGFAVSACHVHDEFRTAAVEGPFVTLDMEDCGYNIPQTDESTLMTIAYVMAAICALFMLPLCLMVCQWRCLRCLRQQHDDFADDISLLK

[4] = target: T1, Glycogen synthase kinase-3 beta; assay: Inhibition of recombinant human GSK-3beta incubated for 30 mins using prephosphorylated polypeptide as substrate in presence of ATP by Kinase-Glo reagent based luminescent assay
[5] = Cmax in CD-1 mouse plasma at 10 mg/kg, po and measured after 30 mins by LC-MS/MS analysis; type: ADME, organism-based; design: dose 10 mg/kg, time 30 min, route po

Sequence of Adenosine kinase (P55263 whole entry): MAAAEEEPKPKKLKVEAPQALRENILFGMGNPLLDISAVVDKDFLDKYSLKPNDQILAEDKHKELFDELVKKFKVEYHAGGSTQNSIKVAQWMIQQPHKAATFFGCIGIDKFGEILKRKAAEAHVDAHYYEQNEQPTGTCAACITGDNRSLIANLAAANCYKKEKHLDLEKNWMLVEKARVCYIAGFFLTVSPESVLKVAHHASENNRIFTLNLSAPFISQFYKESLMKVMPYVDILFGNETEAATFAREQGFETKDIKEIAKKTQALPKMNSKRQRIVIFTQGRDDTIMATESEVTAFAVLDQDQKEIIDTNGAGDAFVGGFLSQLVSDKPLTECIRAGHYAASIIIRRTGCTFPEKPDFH

IC50 (Adenosine kinase): 1.2 µM
SMILES: CCC1(c2ccc(COc3ccccc3)cc2)Oc2ccccc2-n2cccc2C1=O (configuration not stated)

IC50 [1]: 0.304 µM
SMILES: COc1cc2c(Br)cc3c(c2cc1OC)C(=O)NC3=O

solubility kinetic at 24 h, 250 µM [2]: > 250 µM
Cmax [3]: 0.613 ng/mL
IC50 (Beta-secretase 1): 18 µM
IC50 [4]: 14.7 µM
Cmax [5]: 665 ng/mL
SMILES: NC1=NC(c2ccc(F)cc2)CC(=O)N1 (configuration not stated)
